Literature values as cited in patent US8883846B2, “Synthesis of bicyclic compounds and method for their use as therapeutic agents” (priority 2010, dated 2014).

System: influenza A H1N1 viruses, neuraminidase mutation Q136K
Settings: Australian and South East Asian influenza A H1N1 viruses; cited from earlier work

| Compound | reduction in susceptibility |
| --- | --- |
| CC(=O)N[C@H]1[C@H]([C@H](O)[C@H](O)CO)OC(C(=O)O)=C[C@@H]1N=C(N)N [zanamivir] | 300 fold |
| CCC(CC)[C@H](NC(C)=O)[C@@H]1[C@H](O)[C@@H](C(=O)O)C[C@H]1N=C(N)N [peramivir] | 70 fold |
